Results: patent publication US20060281700A1, “SYNERGISTIC MODULATION OF FLT3 KINASE USING AMINOPYRIMIDINES KINASE MODULATORS” (priority 2005, published 2006)

Columns and labels:
MV4-11 cells = experiment: Inhibition of MV4-11 cell proliferation (CellTiterGlo, 72 hours); type: cell-based; settings: Homo sapiens; 72 hours growth; uncertainty ±20%
Experimental: Inhibition Of MV4-11 and Baf3 Cell Proliferation
To assess the cellular potency of the FLT3 inhibitors of Formula I′, FLT3 specific growth inhibition was measured in the leukemic cell line MV4-11 (ATCC Number: CRL-9591). […] MV4-11 cells cannot grow and survive without active FLT3ITD.
To measure proliferation inhibition by test compounds, the luciferase based CellTiterGlo reagent (Promega), which quantifies total cell number based on total cellular ATP concentration, was used. Cells are plated at 10,000 cells per well in 100 ul of in RPMI media containing penn/strep, 10% FBS and 1 ng/ml GM-CSF or 1 ng/ml IL-3 for MV4-11 and Baf3 cells respectively.
Compound dilutions or 0.1% DMSO (vehicle control) are added to cells and the cells are allowed to grow for 72 hours at standard cell growth conditions (37° C., 5% CO2). For activity measurements in MV4-11 cells grown in 50% plasma, cells were plated at 10,000 cells per well in a 1:1 mixture of growth media and human plasma (final volume of 100 μL). To measure total cell growth an equal volume of CellTiterGlo reagent was added to each well, according to the manufacturer's instructions, and luminescence was quantified. Total cell growth was quantified as the difference in luminescent counts (relative light units, RLU) of cell number at Day 0 compared to total cell number at Day 3 (72 hours of growth and/or compound treatment). One hundred percent inhibition of growth is defined as an RLU equivalent to the Day 0 reading. Zero percent inhibition was defined as the RLU signal for the DMSO vehicle control at Day 3 of growth. All data points are an average of triplicate samples. […] Inhibition and IC50 data analysis was done with GraphPad Prism using a non-linear regression fit with a multiparamater, sigmoidal dose-response (variable slope) equation.
MV4-11 cells express the FLT3 internal tandem duplication mutation, and thus are entirely dependent upon FLT3 activity for growth. […] In contrast, the Baf3 cell proliferation is driven by the cytokine IL-3 and thus are used as a non-specific toxicity control for test compounds.

[1] = molecular target: T1, isolated kinase domain of the human FLT3 receptor (a.a. 571-993) (Homo sapiens, UniProt P36888); experiment: FLT3 Fluorescence Polarization Kinase Assay; type: biochemical; settings: 10 nM FLT3 571-993, 150 uM ATP; uncertainty ±10%
T1 construct: isolated kinase domain of the human FLT3 receptor (a.a. 571-993)
T1 sequence (P36888 571-993): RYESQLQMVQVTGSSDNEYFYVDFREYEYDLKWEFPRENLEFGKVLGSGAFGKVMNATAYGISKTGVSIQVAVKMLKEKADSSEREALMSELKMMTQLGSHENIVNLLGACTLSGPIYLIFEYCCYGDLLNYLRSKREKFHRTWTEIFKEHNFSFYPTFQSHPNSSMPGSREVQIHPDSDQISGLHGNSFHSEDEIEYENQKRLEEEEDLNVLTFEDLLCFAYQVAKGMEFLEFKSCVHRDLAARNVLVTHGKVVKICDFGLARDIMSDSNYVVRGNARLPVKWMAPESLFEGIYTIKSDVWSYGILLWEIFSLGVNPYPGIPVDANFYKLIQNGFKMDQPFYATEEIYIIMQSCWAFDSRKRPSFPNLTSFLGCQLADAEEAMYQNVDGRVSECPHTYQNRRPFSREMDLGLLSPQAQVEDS
Experimental: FLT3 Fluorescence Polarization Kinase Assay
To determine the activity of the FLT3 inhibitors of Formula I′ in an in vitro kinase assay, inhibition of the isolated kinase domain of the human FLT3 receptor (a.a. 571-993) was performed using the following fluorescence polarization (FP) protocol. The FLT3 FP assay utilizes the fluorescein-labeled phosphopeptide and the anti-phosphotyrosine antibody included in the Panvera Phospho-Tyrosine Kinase Kit (Green) supplied by Invitrogen. When FLT3 phosphorylates polyGlu4Tyr, the fluorescein-labeled phosphopeptide is displaced from the anti-phosphotyrosine antibody by the phosphorylated poly Glu4Tyr, thus decreasing the FP value. The FLT3 kinase reaction is incubated at room temperature for 30 minutes under the following conditions: 10 nM FLT3 571-993, 20 ug/mL poly Glu4Tyr, 150 uM ATP, 5 mM MgCl2, 1% compound in DMSO. The kinase reaction is stopped with the addition of EDTA. The fluorescein-labeled phosphopeptide and the anti-phosphotyrosine antibody are added and incubated for 30 minutes at room temperature.
All data points are an average of triplicate samples. Inhibition and IC50 data analysis was done with GraphPad Prism using a non-linear regression fit with a multiparamater, sigmoidal dose-response (variable slope) equation.

| SMILES | IC50 (MV4-11 cells) [nM] | IC50 [1] [nM] |
| --- | --- | --- |
| CO/N=C/c1c(N)ncnc1N1CCC(NC(=O)Nc2ccc(N3CCCCC3)cc2)CC1 [Number 13, 1-{1-[6-Amino-5-(methoxyimino-methyl)-pyrimidin-4-yl]-piperidin-4-yl}-3-(4-piperidin-1-yl-phenyl)-urea] | 587 | 310 |
| CO/N=C/c1c(N)ncnc1N1CCC(NC(=O)Nc2ccc(OC3CCC3)nc2)CC1 [Number 15, 1-{1-[6-Amino-5-(methoxyimino-methyl)-pyrimidin-4-yl]-piperidin-4-yl}-3-(6-cyclobutoxy-pyridin-3-yl)-urea] | 578 | 410 |
| CO/N=C/c1c(N)ncnc1N1CCC(NC(=O)Nc2ccc(N3CCCCC3)cc2)C1 (stereo not shown) [Number 9, 1-{1-[6-Amino-5-(methoxyimino-methyl)-pyrimidin-4-yl]-pyrrolidin-3-yl}-3-(4-piperidin-1-yl-phenyl)-urea] | 764 | 450 |
| CO/N=C/c1c(N)ncnc1N1CCC(NC(=O)Nc2ccc(OC3CCC3)nc2)C1 (stereo not shown) [Number 11, 1-{1-[6-Amino-5-(methoxyimino-methyl)-pyrimidin-4-yl]-pyrrolidin-3-yl}-3-(6-cyclobutoxy-pyridin-3-yl)-urea] | 398 | 160 |
| CO/N=C/c1c(N)ncnc1N1CCC(NC(=O)Nc2ccc(N3CCOCC3)cc2)C1 (stereo not shown) [Number 10, 1-{1-[6-Amino-5-(methoxyimino-methyl)-pyrimidin-4-yl]-pyrrolidin-3-yl}-3-(4-morpholin-4-yl-phenyl)-urea] | 569 | 1100 |
| CC(C)Oc1ccc(NC(=O)OC2CCN(c3ncnc(N)c3/C=N/OCCCN(C)C)CC2)cc1 [Number 4, (4-Isopropoxy-phenyl)-carbamic acid 1-{6-amino-5-[(3-dimethylamino-propoxyimino)-methyl]-pyrimidin-4-yl}-piperidin-4-yl ester] | 1400 | 300 |
| CO/N=C/c1c(N)ncnc1N1CCC(OC(=O)Nc2ccc(OC(C)C)cc2)CC1 [Number 1, (4-Isopropoxy-phenyl)-carbamic acid 1-[6-amino-5-(methoxyimino-methyl)-pyrimidin-4-yl]-piperidin-4-yl ester] | 740 | 150 |
| CO/N=C/c1c(N)ncnc1N1CCC(OC(=O)Nc2ccc(C(C)C)cc2)CC1 [Number 5, (4-Isopropyl-phenyl)-carbamic acid 1-[6-amino-5-(methoxyimino-methyl)-pyrimidin-4-yl]-piperidin-4-yl ester] | 11 | 29 |
| CO/N=C/c1c(N)ncnc1N1CCC(NC(=O)Nc2ccc(OC(C)C)cc2)CC1 [Number 12, 1-{1-[6-Amino-5-(methoxyimino-methyl)-pyrimidin-4-yl]-piperidin-4-yl}-3-(4-isopropoxy-phenyl)-urea] | 672 | 460 |
| CO/N=C/c1c(N)ncnc1N1CCC(CC(=O)Nc2ccc(C(C)C)cc2)C1 (stereo not shown) [Number 6, 2-{1-[6-Amino-5-(methoxyimino-methyl)-pyrimidin-4-yl]-pyrrolidin-3-yl}-N-(4-isopropyl-phenyl)-acetamide] | 31 | 16 |
| CO/N=C/c1c(N)ncnc1N1CCC(NC(=O)Nc2ccc(OC(C)C)cc2)C1 (stereo not shown) [Number 8, 1-{1-[6-Amino-5-(methoxyimino-methyl)-pyrimidin-4-yl]-pyrrolidin-3-yl}-3-(4-isopropoxy-phenyl)-urea] | 455 | 290 |
| CO/N=C/c1c(N)ncnc1N1CCC(CC(=O)Nc2ccc(C(C)C)cc2)CC1 [Number 7, 2-{1-[6-Amino-5-(methoxyimino-methyl)-pyrimidin-4-yl]-piperidin-4-yl}-N-(4-isopropyl-phenyl)-acetamide] | 208 | 81 |
| CCO/N=C/c1c(N)ncnc1N1CCC(OC(=O)Nc2ccc(OC(C)C)cc2)CC1 [Number 2, (4-Isopropoxy-phenyl)-carbamic acid 1-[6-amino-5-(ethoxyimino-methyl)-pyrimidin-4-yl]-piperidin-4-yl ester] | 135 | 55 |

Continued, values first:

| IC50 (MV4-11 cells) [nM] | IC50 [1] [nM] | SMILES |
| --- | --- | --- |
| 498 | 2700 | CCNC(=O)NCCO/N=C/c1c(N)ncnc1N1CCC(NC(=O)Nc2ccc(C(C)C)cc2)C1 (stereo not shown) [Number 28, 1-[1-(6-Amino-5-{[2-(3-ethyl-ureido)-ethoxyimino]-methyl}-pyrimidin-4-yl)-pyrrolidin-3-yl]-3-(4-isopropyl-phenyl)-urea] |
| 371 | 2500 | CO/N=C/c1c(N)ncnc1N1CCC(NC(=O)Nc2ccc(Oc3ccccc3)cc2)C1 (stereo not shown) [Number 19, 1-{1-[6-Amino-5-(methoxyimino-methyl)-pyrimidin-4-yl]-pyrrolidin-3-yl}-3-(4-phenoxy-phenyl)-urea] |
| 491 | 4500 | CO/N=C/c1c(N)ncnc1N1CCC(NC(=O)Nc2ccc(N3CCCC3)cc2)C1 (stereo not shown) [Number 20, 1-{1-[6-Amino-5-(methoxyimino-methyl)-pyrimidin-4-yl]-pyrrolidin-3-yl}-3-(4-pyrrolidin-1-yl-phenyl)-urea] |
| 249 | 4500 | CO/N=C/c1c(N)ncnc1N1CCC(NC(=O)Nc2ccc(OC3CCCC3)nc2)C1 (stereo not shown) [Number 21, 1-{1-[6-Amino-5-(methoxyimino-methyl)-pyrimidin-4-yl]-pyrrolidin-3-yl}-3-(6-cyclopentyloxy-pyridin-3-yl)-urea] |
| 1200 | 880 | CO/N=C/c1c(N)ncnc1N1CCC(NC(=O)Nc2ccc(N3CCOCC3)cc2)CC1 [Number 14, 1-{1-[6-Amino-5-(methoxyimino-methyl)-pyrimidin-4-yl]-piperidin-4-yl}-3-(4-morpholin-4-yl-phenyl)-urea] |
| 856 | 1200 | CC(C)c1ccc(NC(=O)NC2CCN(c3ncnc(N)c3/C=N/OCC(=O)N3CCOCC3)C2)cc1 (stereo not shown) [Number 29, 1-(1-{6-Amino-5-[(2-morpholin-4-yl-2-oxo-ethoxyimino)-methyl]-pyrimidin-4-yl}-pyrrolidin-3-yl)-3-(4-isopropyl-phenyl)-urea] |
| 386 | > 10000 | CO/N=C/c1c(N)ncnc1N1CCC(NC(=O)Nc2ccc(C3CCCCC3)cc2)C1 (stereo not shown) [Number 17, 1-{1-[6-Amino-5-(methoxyimino-methyl)-pyrimidin-4-yl]-pyrrolidin-3-yl}-3-(4-cyclohexyl-phenyl)-urea] |
| 890 | 34 | CO/N=C/c1c(N)ncnc1N1CCC(NC(=O)Nc2ccc(Cl)cc2)CC1 [Number 25, 1-{1-[6-Amino-5-(methoxyimino-methyl)-pyrimidin-4-yl]-piperidin-4-yl}-3-(4-chloro-phenyl)-urea] |
| 735 | 2970 | CO/N=C/c1c(N)ncnc1N1CCC(NC(=O)Nc2ccc(Cl)cc2)C1 (stereo not shown) [Number 18, 1-{1-[6-Amino-5-(methoxyimino-methyl)-pyrimidin-4-yl]-pyrrolidin-3-yl}-3-(4-chloro-phenyl)-urea] |
| 651 | 65 | CO/N=C/c1c(N)ncnc1N1CCC(NC(=O)Nc2ccc(OC3CCCC3)nc2)CC1 [Number 23, 1-{1-[6-Amino-5-(methoxyimino-methyl)-pyrimidin-4-yl]-piperidin-4-yl}-3-(6-cyclopentyloxy-pyridin-3-yl)-urea] |
